pKd: −log10 of the molar value. Blank lines part the entries; values can stand above or below the substance they belong to.
Legend:
[1] = system: αSyn PFF-seeded aggregation; assay: αSyn ThT assay, PFF-seeded aggregation with recombinant ClpP; type: biochemical, human; settings: ClpP 5/10 µM; αSyn PFF 1 µM; ThT 1 µM; PBS pH 7.4, 37 °C, 500 rpm, up to 48 h; ex 450 nm / em 485 nm; n = 4
Description: αSyn monomer (5µM) and PFF (1µM) were incubated with recombinant ClpP (5/10µM) and Thioflavin T (ThT) (1µM) in 100 µl PBS (pH 7.4) at 37 °C in a shaking incubator (500 rpm). ThT fluorescence was measured (excitation 450 nm, emission 485 nm) every 15 min up to 48 h.
Fig. 1 ClpP modulates αSyn tetramer and aggregates. […] (B) Western blot and quantification of αSyn tetramer/monomer ratio and oligomer/monomer ratio, upon intact cell DSG-crosslinking, in HEK293T cells overexpressing Myc-tagged WT αSyn with EV or Flag-tagged S153A-ClpP (n = 4–5, two-tailed Student’s t test). (C) Fluorescent images and quantification of αSyn aggregation in SH-SY5Y cells overexpressing EV or ClpP with vectors expressing Venus-N-αSyn (VN) and αSyn-C-Venus (VC) (n = 7, two-tailed Student’s t test, Scale bar = 10 μm). (D) Fluorescent images and quantification of αSyn aggregation in control knock-down (Consh) or ClpP knock-down (ClpPsh) SH-SY5Y cells overexpressing VN and VC (n = 4, two-tailed Student’s t test, Scale bar = 10 μm). (E) In vitro αSyn PFF (1µM) – seeded aggregation in the absence (control) or presence of ClpP (5/10µM) was monitored by thioflavin T (ThT) fluorescence (n = 4, two-tailed Student’s t test). […]

ClpP–αSyn interaction = assay: Co-immunoprecipitation of ClpP with αSyn constructs in HEK293T cell lysates; type: cell-based
Description: Myc-tagged WT- and A53T- αSyn, Myc-tagged ClpP, and Flag-tagged WT- and S153A- ClpP plasmids were self-constructed as previously described (Ref). To construct truncated-αSyn plasmids, pcDNA3.1(-) was digested with BsteII and XbaI, and ΔN-, ΔC- and ΔNAC-αSyn was PCR-amplified using self-designed primers and inserted into the plasmid backbone. Cells were transfected with TransIT-2020 (Mirus Bio, LLC) following the manufacturer’s protocol.
(§1) Cells or tissues were lysed in total lysis buffer (50mM Tris-HCl, pH 7.5, 150mM NaCl, 1% Triton X-100, and protease inhibitor). Total protein lysates (800 µg) were incubated with the indicated antibodies overnight at 4 °C followed by the addition of protein A/G beads (sc-2003, Santa Cruz) for 2 h at 4 °C. Various recombinant αSyn and Clpp (500 ng) were incubated in in vitro interaction buffer (20mM Tris-HCl pH 7.5, 100mM KCl, 2mM MgCl2 and 0.1% Triton-X100) for 30 min at room temperature, and then incubated with indicated antibodies overnight at 4 °C followed by the addition of protein A/G beads for 2 h at 4 °C. The beads with immuno-precipitates were pulled down at 4000 g and washed four times with total lysis buffer/in vitro interaction buffer in the presence of 0.1% Triton X-100 and were analyzed by western blot analysis.
Shown are representative blots of 3 independent experiments. Quantification of the ratio of αSyn over ClpP (pull-down) (n = 4, two-tailed Student’s t test, data are mean ± SEM).

ClpP (HEK293T cells) = assay: ClpP protein level, western blot, HEK293T cells; type: cell-based; settings: WT or A53T αSyn overexpression; 30 min pretreatment; n = 4–5 (CS1: n = 4)
ClpP (SH-SY5Y cells) = assay: ClpP protein level, western blot, SH-SY5Y cells; type: cell-based; settings: WT or A53T αSyn overexpression; 30 min pretreatment; n = 4–5 (CS1: n = 4)
αSyn–ClpP binding = assay: Immunoprecipitation of recombinant ClpP and αSyn in vitro; design: species or system human; settings: recombinant ClpP pre-incubated with peptide 30 min before αSyn; anti-ClpP IP; 3 independent experiments
Description: The human recombinant WT- (#S-1001-2), A53T- (#S-1001-2), ΔNAC- (#S-1015-1) and ΔC- (#S-1012-1) αSyn and FITC-αSyn (S-1113-2) were purchased from rPeptide. The human recombinant αSyn pre-formed fibrils (PFF) (Type 1) (SPR-322) and ATTO-594-PFF (SPR-322B-A594) were purchased from StressMarq Biosciences (Bioactivity has been widely validated via various approaches, e.g. TEM, ThT).
as §1

[2] = system: αSyn oligomerization (VN/VC-αSyn), SH-SY5Y cells; assay: BiFC split-Venus αSyn oligomerization in SH-SY5Y cells; type: cell-based
Text: To construct truncated-αSyn plasmids, pcDNA3.1(-) was digested with BsteII and XbaI, and ΔN-, ΔC- and ΔNAC-αSyn was PCR-amplified using self-designed primers and inserted into the plasmid backbone. Cells were transfected with TransIT-2020 (Mirus Bio, LLC) following the manufacturer’s protocol.
(§2) The bimolecular fluorescence was examined 24-hour after transfection (n = 3, one-way ANOVA with Tukey’s post-hoc test, scale bar = 30 μm). (D) Quantification of the concentration (ng/ml) of extracellular αSyn monomer and oligomer, and intracellular αSyn oligomer in Tet-inducible SH-SY5Y cells that were pre-treated with TAT or CS2 peptide 30-minute before adding doxycycline (Dox) to induce αSyn expression. The concentration of αSyn species was determined by ELISA (n = 4, one-way ANOVA with Tukey’s post-hoc test; data are mean ± SEM). (E) Representative images of Mito-SOX staining in SH-SY5Y cells that were pre-treated with TAT or CS2 peptide and transfected with split Venus-αSyn vectors. Mitochondrial ROS production was determined by Mito-SOX staining after 24-hour transfection (n = 4, two-tailed Student’s t test, scale bar = 30 μm).
The bimolecular fluorescence was examined 24-hour after the transfection and quantitated (n = 14 areas/group, one-way ANOVA with Tukey’s post-hoc test, data are mean ± SEM).

SH-SY5Y cells = assay: Mitochondrial ROS (Mito-SOX) in SH-SY5Y cells; type: cell-based; settings: SH-SY5Y expressing VN/VC-αSyn (CS1: WT αSyn); Mito-SOX 5 µM; vs TAT
Description: Cells cultured on coverslips or 24-well plates were washed with DPBS and then incubated with 5 µM Mito-SOX™ Red (Invitrogen, M36008), a mitochondrial superoxide indicator, for 10 min at 37 °C. For cells cultured on coverslips, the images were visualized by microscope, and quantification of images was then carried out using NIH ImageJ software. At least 100 cells per group were counted in the analysis.
as §2

[3] = biological target: human recombinant αSyn pre-formed fibrils (PFF) (Type 1) (human); assay: MST
FITC-αSyn (human) = FITC-αSyn (human) (UniProt P37840); assay: MST

Substance: recombinant ClpP protein: human recombinant ClpP obtained from Dr. Aaron Schimmer
PFF-ThT fluorescence [1]: dose-dependent suppression of PFF-ThT fluorescence intensity

αSyn–ClpP binding, recombinant (αSyn–ClpP binding): no effect
Substance: TAT-C6-GAVVTG [CS1, decoy peptide]
ClpP binding to ΔC-αSyn (ClpP–αSyn interaction; HEK293T lysates, Flag-ClpP + Myc-ΔC-αSyn): not CS1, abolished the binding
ClpP binding to ΔN-αSyn (ClpP–αSyn interaction; HEK293T lysates, Flag-ClpP + Myc-ΔN-αSyn): not CS1, abolished the binding
ClpP binding to WT-αSyn (ClpP–αSyn interaction; HEK293T lysates, WT αSyn, CS2: 24-hour treatment): not CS1, abolished the binding
αSyn-ClpP interaction, discussion summary (ClpP–αSyn interaction; in vitro or in vivo): no effect, either in vitro or in vivo
ClpP protein level, HEK293T (ClpP (HEK293T cells)): failed to restore ClpP expression
ClpP protein level, SH-SY5Y (ClpP (SH-SY5Y cells)): failed to restore ClpP expression
BiFC signal / αSyn oligomerization ([2]; SH-SY5Y expressing VN/VC-αSyn, 24-hour after transfection): failed to restore ClpP expression (Fig. S4A and B), reduce αSyn oligomerization
αSyn aggregation, discussion summary ([2]; in vitro or in vivo): no effect, either in vitro or in vivo
mitochondrial ROS (Mito-SOX intensity) (SH-SY5Y cells): failed to restore ClpP expression (Fig. S4A and B), reduce αSyn oligomerization (Fig. S4C), or suppress ROS

Substance: Decoy peptide CS2 (TAT-C6-GGVVTA) (from UniProt P04608 47-57)
pKd [3]: 5.40
pKd (FITC-αSyn (human)): 5.15

From article PMC12751141, “Disrupting α-Synuclein–ClpP interaction restores mitochondrial function and attenuates neuropathology in Parkinson’s disease models” (Molecular Neurodegeneration, 2025)
